For 25 compounds, EC50 and IC50 results are on record in patent US9611252B2 (LifeSci Pharmaceuticals, Inc., priority 2013, dated 2017).

Where two headings read alike, the source gives them in different places.

Experiment [1] has as its target kallikrein (Homo sapiens (Human), UniProt P03952). As to the kind of experiment: In vitro cellular assay (contact assay): kallikrein activity in ellagic acid-activated human plasma, substrate Z-FR-2-AMC. The experiment is classed as biochemical. How it is done: The ability of the compounds disclosed herein to inhibit cellular kallikrein activity was quantified and the respective EC50 value was determined.
All dilutions were prepared in an assay buffer comprising 50 mM Tris-HCl pH 7.2, 150 mM NaCl, and 0.01% Triton X-100.
The ten solutions of the test compounds, prepared by serial dilution, were further diluted 50-fold in the assay buffer.
Human plasma is thawed on ice and centrifuged for 15 min at 4° C. to remove platelets. A 1 mM stock solution of ellagic acid is diluted to 8 μM and mixed with human plasma, after removing platelets, at a ratio of 1:0.8.
A 22.5 μL volume of the final mixture of human plasma and ellagic acid was added to a 96-well microwell plate and the plate was incubated for 15 min at 37° C.
The CINH inhibitor at various concentrations, prepared by serial dilutions as described above, were added to the inhibitor control wells. […] Each CINH concentration is tested in duplicates.
The test compounds at various concentrations, also prepared by serial dilutions as described above, are added to the test wells. […] Each test compound concentration was tested in duplicates.
In addition to the inhibitor control and test wells, the 96 well assay plate includes positive control wells which contained the mixture of human plasma and ellagic acid without C1NH inhibitor or test compounds, and background wells which contained neither the mixture of human plasma and ellagic acid nor the test compounds. The total volume of liquid in positive control and background wells was brought up to 35 μL, using the assay buffer.
The assay plate containing C1NH inhibitors and test compounds mixed with human plasma and ellagic acid and appropriate controls was incubated at 37° C. for 5 min. […] The reagents were mixed well by shaking the plate gently for 30 sec.
The enzyme reaction was quantified by immediate kinetic reading of the assay plate using excitation/emission wavelengths of 330 nm/440 nm respectively. Fluorescence intensity was recorded for 60 min, using a time interval of 43 sec.
The inhibition activity of the test compounds were evaluated using the IC50 values, calculated according to the dose-response curve of the test compounds, fitted using the “log(inhibitor)-response (variable slope)” equation in GraphPadPrism software (GraphPad Software, Inc.).
The percentage inhibition was calculated using the following equation:
[formula] where, Mean(BG) is the average value of the fluorescence intensity of the background wells and Mean(PC) is the average value of the fluorescence intensity of the positive control wells.
Table 4 provides the EC50 values of various compounds disclosed herein.

Experiment [2] deals with human Plasma Kallikrein (Homo sapiens (Human), UniProt P03952). As to the kind of experiment: In vitro enzyme inhibition of human plasma kallikrein (PFR-AMC cleavage). It counts as biochemical. To be noted: human plasma kallikrein, Pro-Phe-Arg-AMC substrate, 37° C.; read-out: hPK IC50. The essentials: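 Compound pre-incubated with human plasma kallikrein 5 min at 37° C in 50 mM Tris-HCl pH 7.5, 150 mM NaCl, 0.01% Triton X-100. Reaction started with PFR-AMC, cleavage read kinetically at 37° C every 43 s for 1 h.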
Chain of human Plasma Kallikrein (P03952 20-638): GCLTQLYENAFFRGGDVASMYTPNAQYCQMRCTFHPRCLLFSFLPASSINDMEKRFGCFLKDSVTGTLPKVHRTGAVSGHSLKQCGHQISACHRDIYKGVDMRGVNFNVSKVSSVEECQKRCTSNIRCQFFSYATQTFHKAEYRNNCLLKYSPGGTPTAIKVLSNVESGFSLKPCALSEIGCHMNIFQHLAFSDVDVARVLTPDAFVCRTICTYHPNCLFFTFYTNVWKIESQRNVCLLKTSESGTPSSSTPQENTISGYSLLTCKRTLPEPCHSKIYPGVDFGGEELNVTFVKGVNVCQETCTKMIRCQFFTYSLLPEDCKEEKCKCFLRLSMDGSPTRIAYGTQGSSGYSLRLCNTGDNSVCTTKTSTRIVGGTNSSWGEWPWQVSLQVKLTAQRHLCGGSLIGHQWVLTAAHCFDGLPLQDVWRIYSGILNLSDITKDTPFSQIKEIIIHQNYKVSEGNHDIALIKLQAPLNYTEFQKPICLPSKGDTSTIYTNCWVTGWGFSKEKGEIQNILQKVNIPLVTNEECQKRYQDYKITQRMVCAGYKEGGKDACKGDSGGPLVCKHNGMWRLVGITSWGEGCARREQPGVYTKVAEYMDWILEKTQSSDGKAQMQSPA

Where [3] appears, read: human plasma activated with ellagic acid, Z-FR-2-AMC substrate, 37° C., read-out: Contact Assay EC50.

Chain of kallikrein (P03952 20-638): as above

Turning to `Cc1cnc2c(S(C)(=O)=O)cc(Cc3cc(C(=O)NCc4c(C)cc(N)nc4C)ccn3)cc2c1` [Example 15, N-((6-amino-2,4-dimethylpyridin-3-yl)methyl)-2-((3-methyl-8-(methylsulfonyl)quinolin-6-yl)methyl)isonicotinamide], the EC50 (usually the midpoint of the concentration-response curve) in experiment [1] (setting [3]) was less than 100 nM. The IC50 (commonly the concentration that gives 50% inhibition) in experiment [2] is less than 100 nM.
For `Cc1cnc2c(S(C)(=O)=O)cc(Cc3cc(C(=O)NCc4ccc5c(N)nccc5c4)ccn3)cc2c1` [Example 16, N-((1-aminoisoquinolin-6-yl)methyl)-2-((3-methyl-8-(methylsulfonyl)quinolin-6-yl)methyl)isonicotinamide], the EC50 in experiment [1] (setting [3]) was less than 100 nM. In addition, the IC50 in experiment [2] was less than 100 nM.
Take `Cc1cnc2c(S(C)(=O)=O)cc(Cc3cc(C(=O)NCc4cc5c(Cl)c[nH]c5cc4F)ccn3)cc2c1` [Example 17, N-((3-chloro-6-fluoro-1H-indol-5-yl)methyl)-2-((3-methyl-8-(methylsulfonyl)quinolin-6-yl)methyl)isonicotinamide]: the EC50 in experiment [1] (setting [3]) was less than 100 nM. For the same compound, the IC50 in experiment [2] is less than 100 nM.
For the compound `Cc1cnc2c(S(C)(=O)=O)cc(Cc3cc(C(=O)NCc4cc5cc[nH]c5cc4F)ccn3)cc2c1` [Example 18, N-((6-fluoro-1H-indol-5-yl)methyl)-2-((3-methyl-8-(methylsulfonyl)quinolin-6-yl)methyl)isonicotinamide], the EC50 in experiment [1] (setting [3]) was 100 to 1000 nM. The IC50 in experiment [2] is less than 100 nM.
Taken in the same sequence, the figures for `Cc1cnc2c(S(C)(=O)=O)cc(Cc3cc(C(=O)NCc4cnc5[nH]cc(Cl)c5c4)ccn3)cc2c1` [Example 19, N-((3-chloro-1H-pyrrolo[2,3-b]pyridin-5-yl)methyl)-2-((3-methyl-8-(methylsulfonyl)quinolin-6-yl)methyl)isonicotinamide] were less than 100 nM and less than 100 nM.
Taken in the same sequence, the figures for `Cc1cnc2c(S(C)(=O)=O)cc(Cc3cc(C(=O)NCc4n[nH]c5ccc(Cl)cc45)ccn3)cc2c1` [Example 20, N-((5-chloro-1H-indazol-3-yl)methyl)-2-((3-methyl-8-(methylsulfonyl)quinolin-6-yl)methyl)isonicotinamide] were less than 100 nM and less than 100 nM.
Take `Cc1cnc2c(S(C)(=O)=O)cc(Cc3cc(C(=O)NCc4ccc5[nH]cc(Cl)c5c4F)ccn3)cc2c1` [Example 21, N-((3-chloro-4-fluoro-1H-indol-5-yl)methyl)-2-((3-methyl-8-(methylsulfonyl)quinolin-6-yl)methyl)isonicotinamide]: the EC50 in experiment [1] (setting [3]) is less than 100 nM. In addition, the IC50 in experiment [2] was less than 100 nM.
With `Nc1nccc2cc(CNC(=O)c3ccnc(Cc4ccc5ncc(Cl)cc5c4)c3)ccc12` [Example 31, N-((1-aminoisoquinolin-6-yl)methyl)-2-((3-chloroquinolin-6-yl)methyl)isonicotinamide], the EC50 in experiment [1] (setting [3]) is less than 100 nM. Further, the IC50 in experiment [2] is less than 100 nM.
As to `O=C(NCc1cc2c(Cl)c[nH]c2cc1F)c1ccnc(Cc2ccc3ncc(Cl)cc3c2)c1` [Example 33, N-((3-chloro-6-fluoro-1H-indol-5-yl)methyl)-2-((3-chloroquinolin-6-yl)methyl)isonicotinamide], in experiment [1] (setting [3]), the 50% effective concentration (EC50) lay in the range of 100 to 1000 nM. The 50% inhibitory concentration (IC50) in experiment [2] is less than 100 nM.
In the case of `Cc1nc(N)ccc1CNC(=O)c1ccnc(Cc2ccc3ncc(Cl)cc3c2)c1` [Example 34, N-((6-amino-2-methylpyridin-3-yl)methyl)-2-((3-chloroquinolin-6-yl)methyl)isonicotinamide], the half-maximal effective concentration (EC50) in experiment [1] (setting [3]) was less than 100 nM. Also, the IC50 in experiment [2] is less than 100 nM.
Regarding `Cc1cc(N)nc(C)c1CNC(=O)c1ccnc(Cc2ccc3ncc(Cl)cc3c2)c1` [Example 35, N-((6-amino-2,4-dimethylpyridin-3-yl)methyl)-2-((3-chloroquinolin-6-yl)methyl)isonicotinamide], the half-maximal effective concentration (EC50) in experiment [1] (setting [3]) was less than 100 nM. In addition, the IC50 in experiment [2] was less than 100 nM.
Regarding `O=C(NCc1cnc2[nH]cc(Cl)c2c1)c1ccnc(Cc2ccc3ncc(Cl)cc3c2)c1` [Example 38, N-(3-Chloro-1H-pyrrolo[2,3-b]pyridin-5-ylmethyl)-2-(3-chloro-quinolin-6-ylmethyl)-isonicotinamide], in experiment [1] (setting [3]), the EC50 lay in the range of 100 to 1000 nM. Further, the IC50 in experiment [2] is less than 100 nM.
As to `O=C(NCc1ccc2[nH]cc(Cl)c2c1F)c1ccnc(Cc2ccc3ncc(Cl)cc3c2)c1` [Example 40, N-(3-Chloro-4-fluoro-1H-indol-5-ylmethyl)-2-(3-chloro-quinolin-6-ylmethyl)-isonicotinamide], the EC50 in experiment [1] (setting [3]) fell in the range of 100 to 1000 nM. Moreover, in experiment [2], the IC50 is less than 100 nM.
Consider `Cc1nc(N)ccc1CNC(=O)c1ccnc(Cc2cc(C#N)c3ncc(Cl)cc3c2)c1` [Example 56, N-(6-amino-2-methyl-pyridin-3-ylmethyl)-2-(3-chloro-8-cyano-quinolin-6-ylmethyl)-isonicotinamide], for which the EC50 in experiment [1] lay within 100 to 1000 nM.
On to `N#Cc1cc(Cc2cc(C(=O)NCc3ccc4c(N)nccc4c3)ccn2)cc2cc(Cl)cnc12` [Example 57, N-(1-amino-isoquinolin-6-ylmethyl)-2-(3-chloro-8-cyano-quinolin-6-ylmethyl)-isonicotinamide], for which the EC50 in experiment [1] lay within 100 to 1000 nM. In experiment [2], the IC50 was less than 100 nM.
On to `NC(=O)c1cc(Cc2cc(C(=O)NCc3cc4c(Cl)c[nH]c4cc3F)ccn2)cc2cc(Cl)cnc12` [Example 59, 3-chloro-6-((4-(((3-chloro-6-fluoro-1H-indol-5-yl)methyl)carbamoyl)pyridin-2-yl)methyl)quinoline-8-carboxamide], for which the EC50 in experiment [1] (setting [3]) lay within 100 to 1000 nM. The IC50 in experiment [2] was less than 100 nM.
For `NC(=O)c1cc(Cc2cc(C(=O)NCc3n[nH]c4ccc(Cl)cc34)ccn2)cc2cc(Cl)cnc12` [Example 60, 3-chloro-6-((4-(((5-chloro-1H-indazol-3-yl)methyl)carbamoyl)pyridin-2-yl)methyl)quinoline-8-carboxamide], in experiment [1] (setting [3]), the EC50 is 100 to 1000 nM. Besides, the IC50 in experiment [2] was less than 100 nM.
Consider `NC(=O)c1cc(Cc2cc(C(=O)NCc3cnc4[nH]cc(Cl)c4c3)ccn2)cc2cc(Cl)cnc12` [Example 61, 3-chloro-6-((4-(((3-chloro-1H-pyrrolo[2,3-b]pyridin-5-yl)methyl)carbamoyl)pyridin-2-yl)methyl)quinoline-8-carboxamide], for which the EC50 in experiment [1] (setting [3]) is 100 to 1000 nM. Further, in experiment [2], the IC50 was less than 100 nM.
With `Cc1nc(N)ccc1CNC(=O)c1ccnc(Cc2cc(C(N)=O)c3ncc(Cl)cc3c2)c1` [Example 62, 6-((4-(((6-amino-2-methylpyridin-3-yl)methyl)carbamoyl)pyridin-2-yl)methyl)-3-chloroquinoline-8-carboxamide], in experiment [1] (setting [3]), the EC50 is less than 100 nM. In experiment [2], the IC50 was less than 100 nM.
Regarding `NC(=O)c1cc(Cc2cc(C(=O)NCc3ccc4c(N)nccc4c3)ccn2)cc2cc(Cl)cnc12` [Example 64, 6-((4-(((1-aminoisoquinolin-6-yl)methyl)carbamoyl)pyridin-2-yl)methyl)-3-chloroquinoline-8-carboxamide], the EC50 in experiment [1] (setting [3]) is less than 100 nM. The IC50 in experiment [2] was less than 100 nM.
As to `Cc1cc(N)nc(C)c1CNC(=O)c1ccnc(Cc2ccc3nccc(C#N)c3c2)c1` [Example 138, N-((6-amino-2,4-dimethylpyridin-3-yl)methyl)-2-((4-cyanoquinolin-6-yl)methyl)isonicotinamide], the IC50 in experiment [2] was less than 100 nM.
Turning to `Nc1nccc2cc(CNC(=O)c3ccnc(Cc4cnc5cc(Cl)ccc5c4)c3)ccc12` [Example 139, N-((1-aminoisoquinolin-6-yl)methyl)-2-((7-chloroquinolin-3-yl)methyl)isonicotinamide], the IC50 in experiment [2] was less than 100 nM.
Consider `O=C(NCc1cc2c(Cl)c[nH]c2cc1F)c1ccnc(Cc2cnc3cc(Cl)ccc3c2)c1` [Example 140, N-((3-chloro-6-fluoro-1H-indol-5-yl)methyl)-2-((7-chloroquinolin-3-yl)methyl)isonicotinamide], for which the IC50 in experiment [2] was less than 100 nM.
In the case of `Cc1cc(N)nc(C)c1CNC(=O)c1ccnc(Cc2cnc3cc(Cl)ccc3c2)c1` [Example 141, N-((6-amino-2,4-dimethylpyridin-3-yl)methyl)-2-((7-chloroquinolin-3-yl)methyl)isonicotinamide], the IC50 in experiment [2] was less than 100 nM.
Still for that read-out and setting: in the case of `NCc1ccc2cc(Cc3cc(C(=O)NCc4ccc5c(N)nccc5c4)ccn3)ccc2n1` [Example 146, N-((1-aminoisoquinolin-6-yl)methyl)-2-((2-(aminomethyl)quinolin-6-yl)methyl)isonicotinamide] it was 100 to 1000 nM.
